# Experimental data: ChEMBL document CHEMBL4613212, “Insights of synthetic analogues of anti-leprosy agents” (Bioorg Med Chem, 2019)
# Assays:
# [1] = test system: Mycobacterium tuberculosis; experiment: Antimycobacterial activity against Mycobacterium tuberculosis H37Rv infected in CF-1 mouse assessed as change in survival time at 42 mg/kg administrated daily for 14 days with food relative to control; assay type: functional
# [2] = test system: Mycobacterium tuberculosis; experiment: Antimycobacterial activity against Mycobacterium tuberculosis H37Rv infected in CF-1 mouse assessed as change in survival time at 24 mg/kg administrated daily for 14 days with food relative to control; assay type: functional
# [3] = test system: Mycobacterium tuberculosis; experiment: Antimycobacterial activity against Mycobacterium tuberculosis H37Rv infected in CF-1 mouse assessed as change in survival time at 4 mg/kg administrated daily for 14 days with food relative to control; assay type: functional
# [4] = test system: Mycobacterium tuberculosis; experiment: Antimycobacterial activity against Mycobacterium tuberculosis H37Rv infected in CF-1 mouse assessed as change in survival time at 8 mg/kg administrated daily for 14 days with food relative to control; assay type: functional
# Mycobacterium leprae [5] = experiment: Antimicrobial activity against Mycobacterium leprae; assay type: functional
# Mycobacterium leprae [6] = experiment: Anti-leprotic activity against Mycobacterium leprae infected in albino mouse assessed survival against infection at 400 mg/kg, sc administered 58 days post-infection and subsequent compound dosing at 200 mg/kg at 0.5, 1 or 2 months interval; assay type: functional
# Mycobacterium leprae [7] = experiment: (§1) Inhibition of PGL1 synthesis in Mycobacterium leprae infected Swiss Webster mouse macrophages assessed as decrease in [U-14C]PA incorporation at 2 uM preincubated for 4 days post infection followed by [U-14C]PA addition and measured after 7 days by liquid scintillation counter analysis relative to control; assay type: functional
# Mycobacterium leprae [8] = experiment: Anti-leprotic activity against Mycobacterium leprae infected in 538 CBA mouse assessed as number of Mycobacterium leprae in paw pads at 2 mg/kg administrated via gastric tube 5 times a week and measured 7 months post infection; assay type: functional
# Mycobacterium leprae [9] = experiment: Anti-leprotic activity against Mycobacterium leprae subcultures at 4 weeks assessed as ATP level per 10^7 cells at 0.005 mg/L measured by bioluminescence assay (reference value: 462 +/- 64 pg); assay type: functional
# [10] = Drug concentration in rat blood at 400 mg/kg, sc administered as single dose; assay type: ADME, organism-based; details: in vivo
# Mycobacterium leprae [11] = experiment: Anti-leprotic activity against Mycobacterium leprae infected in CBA mouse assessed as number of Mycobacterium leprae in paw pads at 10 mg/kg administrated 5 times a week and measured 7.5 months post infection (reference value: 3.91 +/- 0.33 10^5); assay type: functional
# Mycobacterium leprae [12] = experiment: Anti-leprotic activity against Mycobacterium leprae subcultures at 4 weeks assessed as ATP level per 10^7 cells at 0.025 mg/L measured by bioluminescence assay (reference value: 462 +/- 64 pg); assay type: functional
# Mycobacterium leprae [13] = experiment: Anti-leprotic activity against Mycobacterium leprae infected in CBA mouse assessed as number of Mycobacterium leprae in paw pads at 30 mg/kg administrated 5 times a week and measured 7.5 months post infection (reference value: 3.91 +/- 0.33 10^5); assay type: functional
# Mycobacterium leprae [14] = experiment: Anti-leprotic activity against Mycobacterium leprae primary cultures at 4 weeks assessed as [3H]thymidine uptake per 5 times 10^7 cells at 0.025 mg/L (reference value: 0.95 +/- 0.01 pmol); assay type: functional
# Mycobacterium leprae [15] = experiment: Anti-leprotic activity against Mycobacterium leprae primary cultures at 4 weeks assessed as ATP level per 10^7 cells at 0.005 mg/L measured by bioluminescence assay (reference value: 314 +/- 46 pg); assay type: functional
# Mycobacterium leprae [16] = experiment: Anti-leprotic activity against Mycobacterium leprae subcultures at 4 weeks assessed as ATP level per 10^7 cells at 0.01 mg/L measured by bioluminescence assay (reference value: 462 +/- 64 pg); assay type: functional
# Mycobacterium leprae [17] = experiment: Anti-leprotic activity against Mycobacterium leprae primary cultures at 4 weeks assessed as [3H]thymidine uptake per 5 times 10^7 cells at 0.01 mg/L (reference value: 0.95 +/- 0.01 pmol); assay type: functional
# Mycobacterium leprae [18] = experiment: Anti-leprotic activity against Mycobacterium leprae primary cultures at 4 weeks assessed as ATP level per 10^7 cells at 0.01 mg/L measured by bioluminescence assay (reference value: 314 +/- 46 pg); assay type: functional
# Rattus norvegicus = experiment: Effect of metallo-protein haemoglobin in rat assessed as peak methemoglobin level at 400 mg/kg, sc administered as single dose; assay type: ADME, organism-based; details: in vivo
# Plasmodium berghei = experiment: Antimalarial activity against Plasmodium berghei infected in albino mouse assessed survival against infection at 400 mg/kg, sc administered as single dose; assay type: functional
# Mycobacterium leprae [19] = experiment: Anti-leprotic activity against Mycobacterium leprae primary cultures at 4 weeks assessed as ATP level per 10^7 cells at 0.025 mg/L measured by bioluminescence assay (reference value: 314 +/- 46 pg); assay type: functional
# Mycobacterium leprae [20] = experiment: Anti-leprotic activity against Mycobacterium leprae subcultures at 4 weeks assessed as [3H]thymidine uptake per 5 times 10^7 cells at 0.005 mg/L (reference value: 1.28 +/- 0.14 pmol); assay type: functional
# Mycobacterium leprae [21] = experiment: Anti-leprotic activity against Mycobacterium leprae infected in BALB/c mouse assessed as time delay in bacterial multiplication in footpad at 0.0001 g/100g of diet administered via feed starting 60 or 75 day post infection up to 90 days by Shepard's kinetic method; assay type: functional
# Mycobacterium leprae [22] = experiment: as §1, with “20” for “2”; assay type: functional
# [23] = test system: Mycolicibacterium smegmatis; experiment: Antimycobacterial activity against DDS sensitive Mycobacterium smegmatis ATCC 607 […]; assay type: functional
# Mycobacterium leprae [24] = experiment: Anti-leprotic activity against Mycobacterium leprae primary cultures at 4 weeks assessed as [3H]thymidine uptake per 5 times 10^7 cells at 0.005 mg/L (reference value: 0.95 +/- 0.01 pmol); assay type: functional
# Mycobacterium leprae [25] = experiment: Anti-leprotic activity against Mycobacterium leprae subcultures at 4 weeks assessed as [3H]thymidine uptake per 5 times 10^7 cells at 0.01 mg/L (reference value: 1.28 +/- 0.14 pmol); assay type: functional
# [26] = test system: Mycolicibacterium smegmatis; experiment: Antimycobacterial activity against DDS resistant Mycobacterium smegmatis ATCC 607 […]; assay type: functional
# [27] = Drug excretion in rat urine at 400 mg/kg, sc administered as single dose measured after 30 days; assay type: ADME, organism-based; details: read-out: Drug excretion
# Mycobacterium leprae [28] = experiment: Anti-leprotic activity against Mycobacterium leprae subcultures at 4 weeks assessed as [3H]thymidine uptake per 5 times 10^7 cells at 0.025 mg/L (reference value: 1.28 +/- 0.14 pmol); assay type: functional
# [29] = test system: Mycobacterium tuberculosis; experiment: Antimycobacterial activity against Mycobacterium tuberculosis H37Rv infected in CF-1 mouse assessed as change in survival time at 9 mg/kg administrated daily for 14 days with food relative to control; assay type: functional
# [30] = test system: Mycobacterium tuberculosis; experiment: Antimycobacterial activity against Mycobacterium tuberculosis H37Rv infected in CF-1 mouse assessed as change in survival time at 2 mg/kg administrated daily for 14 days with food relative to control; assay type: functional
# [31] = test system: Mycobacterium tuberculosis; experiment: Antimycobacterial activity against Mycobacterium tuberculosis H37Rv infected in CF-1 mouse assessed as change in survival time at 5 mg/kg administrated daily for 14 days with food relative to control; assay type: functional
# [32] = test system: Mycobacterium tuberculosis; experiment: Antimycobacterial activity against Mycobacterium tuberculosis H37Rv infected in CF-1 mouse assessed as change in survival time at 16 mg/kg administrated daily for 14 days with food relative to control; assay type: functional
# [33] = test system: Mycobacterium tuberculosis; experiment: Antimycobacterial activity against Mycobacterium tuberculosis H37Rv infected in CF-1 mouse assessed as change in survival time at 6 mg/kg administrated daily for 14 days with food relative to control; assay type: functional
# [34] = test system: Mycobacterium tuberculosis; experiment: Antimycobacterial activity against Mycobacterium tuberculosis H37Rv infected in CF-1 mouse assessed as change in survival time at 850 mg/kg administrated daily for 14 days with food relative to control; assay type: functional
# [35] = Selectivity index, ratio of IC50 for African green monkey Vero cells to MIC for antitubercular activity against Mycobacterium tuberculosis H37Rv; assay type: toxicity; details: vero
# [36] = test system: Mycobacterium tuberculosis; experiment: Antitubercular activity against Mycobacterium tuberculosis H37Rv ATCC 27294 assessed as inhibition of [3H]-thymidine incorporation relative to control; assay type: functional
# [37] = test system: Mycobacterium tuberculosis; experiment: Antitubercular activity against Mycobacterium tuberculosis H37Rv ATCC 27294 assessed as growth inhibition at 12.5 ug/ml by microplate alamar blue assay relative to control; assay type: functional
# Vero = experiment: Cytotoxicity against African green monkey Vero cells incubated for 72 hrs by MTT assay; assay type: cell-based, Chlorocebus sabaeus
# Mycobacterium leprae [38] = experiment: Anti-leprotic activity against Mycobacterium leprae infected in 538 CBA mouse assessed as number of Mycobacterium leprae in paw pads at 4 mg/kg administrated via gastric tube 5 times a week and measured 7 months post infection; assay type: functional
# [39] = test system: Mycobacterium tuberculosis; experiment: Antimycobacterial activity against Mycobacterium tuberculosis H37Rv infected in CF-1 mouse assessed as change in survival time at 41 mg/kg administrated daily for 14 days with food relative to control; assay type: functional
# [40] = test system: Mycobacterium tuberculosis; experiment: Antimycobacterial activity against Mycobacterium tuberculosis H37Rv infected in CF-1 mouse assessed as change in survival time at 11 mg/kg administrated daily for 14 days with food relative to control; assay type: functional
# [41] = test system: Mycobacterium tuberculosis; experiment: Antimycobacterial activity against Mycobacterium tuberculosis H37Rv infected in CF-1 mouse assessed as change in survival time at 25 mg/kg administrated daily for 14 days with food relative to control; assay type: functional
# [42] = test system: Mycobacterium tuberculosis; experiment: Antimycobacterial activity against Mycobacterium tuberculosis H37Rv infected in CF-1 mouse assessed as change in survival time at 12 mg/kg administrated daily for 14 days with food relative to control; assay type: functional
# [43] = test system: Mycobacterium tuberculosis; experiment: Antimycobacterial activity against Mycobacterium tuberculosis H37Rv infected in CF-1 mouse assessed as change in survival time at 3 mg/kg administrated daily for 14 days with food relative to control; assay type: functional
compound,measurement,setting,value
COc1ccc(/N=N/c2ccc(NCCCN3CCCCC3)c3c2CCCC3)cc1,MST,[1],50 days
same,MST,[2],26 days
same,MST,[3],11 days
same,MST,[4],13 days
Nc1ccc(S(=O)(=O)c2ccc(N)cc2)cc1 [DAPSONE],MIC,Mycobacterium leprae [5],15 µg/mL
same,Survival,Mycobacterium leprae [6],2 weeks
same,inhibition at 2 µM,Mycobacterium leprae [7],92%
same,Activity,Mycobacterium leprae [8],0.025 ×10⁷ No_unit
same,Activity,Mycobacterium leprae [9],514 pg
same,Drug uptake,[10],13.8 µg/mL
same,Activity,Mycobacterium leprae [11],0.27 ×10⁵ No_unit
same,Activity,Mycobacterium leprae [12],0 pg
same,Activity,Mycobacterium leprae [13],0.22 ×10⁵ No_unit
same,Activity,Mycobacterium leprae [14],0 pmol
same,Activity,Mycobacterium leprae [15],334 pg
same,Activity,Mycobacterium leprae [16],396 pg
same,Activity,Mycobacterium leprae [17],0.79 pmol
same,Activity,Mycobacterium leprae [18],307 pg
same,Activity,Rattus norvegicus,3.9 g/dL
same,Survival,Plasmodium berghei,<1 weeks
same,Activity,Mycobacterium leprae [19],0 pg
same,Activity,Mycobacterium leprae [20],1.37 pmol
same,Time,Mycobacterium leprae [21],>91 days
same,inhibition at 20 µM,Mycobacterium leprae [22],91%
same,MIC,[23],8.1 µg/mL
same,Activity,Mycobacterium leprae [24],0.98 pmol
same,Activity,Mycobacterium leprae [25],0.92 pmol
same,MIC,[26],3220 µg/mL
same,dose excreted at 720 h,[27],57%
same,Activity,Mycobacterium leprae [28],0 pmol
Clc1ccc(/N=N/c2ccc(NCCCN3CCCCC3)c3c2CCCC3)cc1,MST,[29],42 days
same,MST,[30],11 days
same,MST,[31],33 days
same,MST,[32],78 days
Nc1ccc(C(=O)O)c(O)c1 [AMINOSALICYLIC ACID],MST,[33],52 days
same,MST,[3],26 days
same,MST,[30],17 days
same,MST,[34],25 days
Clc1nc(-c2ccccc2)c2ncn(Cc3ccccc3)c2n1,Selectivity Index,[35],Nd(Insoluble)
same,inhibition (INH),[36],76%
same,inhibition at 12.5 µg/mL,[37],> 90%
same,IC50,Vero,Nd(Insoluble)
CCN(CC)C(=S)Sc1ncc([N+](=O)[O-])cc1C#N,Activity,Mycobacterium leprae [11],0.56 ×10⁵ No_unit
same,Activity,Mycobacterium leprae [13],0.06 ×10⁵ No_unit
same,Activity,Mycobacterium leprae [38],0.042 ×10⁷ No_unit
c1ccc(/N=N/c2ccc(NCCCN3CCCCC3)c3c2CCCC3)cc1,MST,[39],50 days
same,MST,[40],13 days
same,MST,[41],37 days
COc1ccc(/N=N/c2ccc(NCCCN3CCCCC3)c3c2CCCC3)cn1,MST,[2],46 days
same,MST,[42],31 days
same,MST,[43],10 days
same,MST,[31],13 days
